The values that follow come from article PMC12299140, “Synthetic Analogs of the Alkaloid Cassiarin A with Enhanced Antimalarial Activity” (Pharmaceuticals, 2025).

Test [1] deals with chloroquine-resistant P. falciparum strain Dd2. Kind of test: Malstat assay, chloroquine-resistant strain Dd2. As to conditions: for RI, resistance index = IC50 (Dd2)/IC50 (3D7): Dd2 vs 3D7; for IC50 / IC90: Plasmodium falciparum; for IC50: read-out: IC50 P. falciparum Dd2; for IC90: read-out: IC90 P. falciparum Dd2. The format is cell-based, Plasmodium falciparum. As to the method:
(§1) The chloroquine-sensitive Plasmodium falciparum strain 3D7 and the chloroquine-resistant strain Dd2 were cultivated in vitro at 5% hematocrit in complete medium comprising RPMI 1640/HEPES medium supplemented with 0.5% w/w Albumax II, 10 µg/mL gentamicin, and 50 µg/mL hypoxanthine. Cultures were maintained at 37 °C in an atmosphere of 5% CO2, 5% O2, and 90% N2. To enrich parasites in the ring-stage, an asexual blood stage culture was synchronized. The culture was centrifuged at 1000× g for 3 min, and the supernatant was discarded. The cell pellet was resuspended in 5% sorbitol and incubated at room temperature for 10 min. Subsequently, the culture was centrifuged, and the pellet was washed with RPMI 1640/HEPES medium. After a final centrifugation step, the cell pellet was resuspended in fresh complete medium and returned to standard culture conditions for further cultivation. Human serum and erythrocyte concentrate were obtained from the Department of Transfusion Medicine, University Hospital Aachen, Germany. Donor sera and blood samples were pooled and kept anonymous. The work with human blood was approved by the Ethics Commission of the RWTH University Hospital (EK 007/13).
(§2) Synchronized ring-stage cultures of the P. falciparum strains 3D7 and Dd2 mixed with the compound were plated in triplicate into 96-well plates (200 µL/well) at a parasitemia of 1%. […] In addition, a dilution series with chloroquine with concentrations between 500 nM and 4 nM was used as a positive control and 0.5% v/v DMSO was used as a negative control. The cultures were then incubated under standard culture conditions for 72 h. Following incubation, 20 µL of the culture was transferred in triplicate to a new 96-well plate and mixed with 100 µL of Malstat reagent (0.1% v/v Triton X-100, 1 g L-lactate, 0.33 g Tris and 33 mg of 3-acetylpyridine adenine dinucleotide in 100 mL distilled water, pH 9.0) and 20 µL mixture of NBT and diaphorase (1:1 v/v; 1 mg/mL stock each). After colour development in the wells, absorbance was measured at OD630nm using a Tecan Plate Reader. The IC50 and IC90 values of the compounds were then determined using the GraphPad Prism software.

In test [2] the test system is chloroquine-sensitive Plasmodium falciparum strain 3D7. As to the kind of experiment: Malstat assay, chloroquine-sensitive strain 3D7. The format is cell-based. As to conditions: for IC50 / IC90: Plasmodium falciparum; for IC50: read-out: P. falciparum 3D7 IC50; for IC90: read-out: P. falciparum 3D7 IC90. The procedure: as §1, §2
Test [3] has as its system Human umbilical vein endothelial cells (HUVECs). As to conditions: cited from earlier work.
Test [4] has the same test system. As to the kind of experiment: Cytotoxicity assay (CellTiter-Blue cell viability assay). The format is cell-based. To be noted: HUVEC, 72 h. The procedure:
Human umbilical vein endothelial cells (HUVECs) were purchased from Promocell (Heidelberg, Germany) and cultivated with ECGM Kit enhanced (PELO Biotech, Planegg, Germany) supplemented with 10% (FCS) (PAA Laboratories, Cölbe, Germany) and 1% penicillin/streptomycin/amphotericin B (all purchased from PAN Biotech). Cells were cultured at 37 °C with 5% CO2 with constant humidity. Cell proliferation was assessed using the CellTiter-Blue cell viability assay (Promega, Madison, WI, USA). Cells were treated as indicated for 72 h and 4 h before termination CellTiter-Blue reagent was added in a ratio of 1:10. Fluorescence intensity was determined by using the SpectraFluor Plus plate reader (Tecan, Männedorf, Switzerland) at 550 nm excitation and 595 nm emission wavelength. Fluorescence intensity is proportional to the cell number. Non-linear regression was carried out using the log(inhibitor) vs. response–variable slope (four parameters) function of GraphPad Prism (San Diego, CA, USA).
Figure 4 Cytotoxic effects of cassiarin A (5) and analogs 11b, 11c, and 11d on proliferation of HUVEC assessed by CellTiter-Blue^TM assay. IC50 values were determined using the log(inhibitor) vs. response—variable slope (four parameters) function of GraphPad Prism (10.4.0). Data are shown as mean ± SD.

Setting [5] is: chloroquine-resistant strain Dd2, Malstat assay, 72 h.
Setting [6] is: chloroquine-sensitive strain 3D7, Malstat assay, 72 h.

Read-outs that look alike come from different tables or passages of the source.

Consider `CCN(CC)CCCC(C)Nc1ccnc2cc(Cl)ccc12` (centres unmarked) [Compound 2, chloroquine, reference compound], for which the “RI, resistance index = IC50 (Dd2)/IC50 (3D7)” value (from here on “RI, resistance index = IC50”) in test [1] came to 5.3. In addition, in test [1] (DD2, 72 h), the IC50 stood at 160 ± 40 nM and the IC90 was 230 ± 130 nM. Further, in test [2] (3D7, 72 h), the IC50 was 30 ± 10 nM and the IC90 turned out to be 50 ± 10 nM. In test [3], the “selectivity index (=IC50 (HUVEC)/IC50 (3D7))” value is 1987.

As to `CC1=Cc2nc(C)cc3cc(O)cc(c23)O1` [Compound 5, Cassiarin A], the “RI, resistance index = IC50” value in test [1] was found to be 1.4. Moreover, the IC50 stood at 13600 ± 3950 nM in test [1] (setting [5]), 9600 ± 630 nM in test [2] (setting [6]) and 16400 nM in test [4]. In addition, the IC90 in test [1] (setting [5]) came to 20500 ± 11900 nM; in test [2] (setting [6]) it was 16400 ± 3070 nM.

Turning to `CC1=Cc2nc(CN)cc3cc(O)cc(c23)O1` [Compound 11a, 5-(Aminomethyl)-2-methylpyrano[2,3,4-ij]isoquinolin-8-ol], in test [2] (setting [6]), the IC50 was determined as 31900 ± 11500 nM and the IC90 is 53300 ± 10500 nM.

Regarding `Oc1cc2c3c(nc(-c4ccccc4)cc3c1)C=C(c1ccccc1)O2` [Compound 11b, 2,5-Diphenylpyrano[2,3,4-ij]isoquinolin-8-ol], in test [2] (setting [6]), the IC50 was found to be 2000 ± 180 nM and the IC90 is 2900 ± 530 nM. This compound gave an IC50 in test [4] of 2220 nM.

`Cc1cc2cc(O)cc3c2c(n1)C=C(c1ccccc1)O3` [Compound 11c, 5-Methyl-2-phenylpyrano[2,3,4-ij]isoquinolin-8-ol]: the “RI, resistance index = IC50” value in test [1] was found to be 4.3. For the same compound, the IC50 in test [1] (setting [5]) turned out to be 1700 ± 740 nM; in test [2] (setting [6]), 400 ± 40 nM; in test [4], 1230 nM. In addition, the IC90 in test [1] (setting [5]) came out at 2100 ± 1080 nM; in test [2] (setting [6]), 500 ± 110 nM.

In the case of `NCc1cc2cc(O)cc3c2c(n1)C=C(c1ccccc1)O3` [Compound 11d, 5-(Aminomethyl)-2-phenylpyrano[2,3,4-ij]isoquinolin-8-ol], the “RI, resistance index = IC50” value in test [1] amounted to 2.0. For the same compound, the IC50 in test [1] (setting [5]) came out at 1200 ± 320 nM; in test [2] (setting [6]), 600 ± 110 nM; in test [4] it was 680 nM. For the same compound, the IC90 in test [1] (setting [5]) amounted to 1800 ± 170 nM; in test [2] (setting [6]) it was 1000 ± 280 nM.

In the case of `OCc1cc2cc(O)cc3c2c(n1)C=C(c1ccccc1)O3` [Compound 11e, 5-(Hydroxymethyl)-2-phenylpyrano[2,3,4-ij]isoquinolin-8-ol], in test [2] (setting [6]), the IC50 amounted to 2100 ± 380 nM and the IC90 worked out at 2700 ± 220 nM.

As to `OCCc1cc2cc(O)cc3c2c(n1)C=C(c1ccccc1)O3` [Compound 11f, 5-(2-Hydroxyethyl)-2-phenylpyrano[2,3,4-ij]isoquinolin-8-ol], in test [2] (setting [6]), the IC50 worked out at 1700 ± 200 nM and the IC90 was determined as 3400 ± 1280 nM.

`Cc1cc2cc(O)cc3c2c(n1)C=C(c1ccc(O)cc1)O3` [Compound 11g, 2-(4-Hydroxyphenyl)-5-methylpyrano[2,3,4-ij]isoquinolin-8-ol]: in test [1], the “RI, resistance index = IC50” value is listed as 4.8. Moreover, in test [1] (setting [5]), the IC50 was 1900 ± 1010 nM and the IC90 was determined as 5900 ± 3420 nM. In test [2] (setting [6]), the IC50 was determined as 400 ± 30 nM and the IC90 was 900 ± 540 nM.

As for `CCCCC1=Cc2nc(C)cc3cc(O)cc(c23)O1` [Compound 18a, 2-Butyl-5-methylpyrano[2,3,4-ij]isoquinolin-8-ol], in test [2] (setting [6]), the IC50 amounted to 1900 ± 190 nM and the IC90 came to 2500 ± 490 nM.

Regarding `COc1cc2c3c(nc(C)cc3c1)C=C(c1ccc(OCCO)cc1)O2` [Compound 18b, 2-(4-(8-Methoxy-5-methylpyrano[2,3,4-ij]isoquinolin-2-yl)phenoxy)ethan-1-ol], in test [2] (setting [6]), the IC50 turned out to be 2200 ± 580 nM and the IC90 was 3200 ± 680 nM.

`COC(=O)c1ccc(C2=Cc3nc(C)cc4cc(O)cc(c34)O2)cc1` [Compound 18c, Methyl 4-(8-hydroxy-5-methylpyrano[2,3,4-ij]isoquinolin-2-yl)benzoate]: the “RI, resistance index = IC50” value in test [1] was found to be 2.0. In test [1] (setting [5]), the IC50 was 400 ± 210 nM and the IC90 is 800 ± 580 nM. In test [2] (setting [6]), the IC50 came out at 200 ± 50 nM and the IC90 was 400 ± 140 nM.

Consider `C#CCOc1cc2c3c(nc(C)cc3c1)C=C(c1ccccc1)O2` [Compound 24, 5-Methyl-2-phenyl-8-(prop-2-in-1-yloxy)pyrano[2,3,4-ij]isoquinoline], for which, in test [2] (setting [6]), the IC50 was at least 100000 nM and the IC90 was at least 100000 nM. In addition, the “antiplasmodial activity (in words)” value in test [2] (strain 3D7, Malstat assay) is reported as “complete loss of antiplasmodial activity”.
